SMILES strings stand for the structures.

In the experiment the target is T1, mutant G12C K-RAS (Homo sapiens, UniProt P01116, G12C).
T1 construct: made in house; host or cells: E. coli BL21
The experiment can be described thus: covalent adduct formation (CAF) with mutant G12C K-RAS. It is filed as binding. More on the design: CAF: unit not given here. Conditions: for % CAF @ 10 μM,1 h: Table 6. The method, then:
Embodiments disclosed herein are further illustrated by the following examples in Tables 1-4 and the Examples hereinbelow. The Tables indicate the compound number, structure, the observed mass spectral molecular weight peak, and covalent adduct formation (CAF) with a mutant G12C K-RAS after 60 minutes at a concentration of 10 micromolar.

Where [1] appears, read: Table 2, Pyrimidone Core-Morpholine Substituted, after 60 minutes at 10 micromolar.
Where [2] appears, read: Table 1, Pyrimidone Core-Morpholine Unsubstituted, after 60 minutes at 10 micromolar.

Consider `C=CC(=O)N1C[C@H](C)N(c2nc(=O)n3c4c(c(-c5c(C)ccc6[nH]ncc56)c(Cl)cc24)OC[C@@H]3CCCN2C3CCC2COC3)C[C@H]1C` [Example 282, (3S,10R)-3-(3-(3-oxa-8-azabicyclo[3.2.1]octan-8-yl)propyl)-7-((2S,5R)-4-acryloyl-2,5-dimethylpiperazin-1-yl)-9-chloro-10-(5-methyl-1H-indazol-4-yl)-2,3-dihydro-5H-[1,4]oxazino[2,3,4-ij]quinazolin-5-one], for which the “% CAF @ 10 μM,1 h” value (1 h) is reported as 86%. As to `C=CC(=O)N1C[C@H](C)N(c2nc(=O)n3c4c(c(-c5ccc(F)cc5F)c(Cl)cc24)OC[C@H]3CC2CCN(C3CC3)CC2)C[C@H]1C` [Example 329, (3R)-7-((2S,5R)-4-acryloyl-2,5-dimethylpiperazin-1-yl)-9-chloro-3-((1-cyclopropylpiperidin-4-yl)methyl)-10-(2,4-difluorophenyl)-2H-[1,4]oxazino[2,3,4-ij]quinazolin-5(3H)-one], the “% CAF @ 10 μM,1 h” value (1 h) worked out at 73.4%. The same measure, in the same setting: then `C=CC(=O)N1C[C@H](C)N(c2nc(=O)n3c4c(c(-c5ccc(F)cc5F)c(Cl)cc24)OC[C@H]3CCCN2CCN(C)CC2)C[C@H]1C` [Example 264, (3R)-7-((2S,5R)-4-acryloyl-2,5-dimethylpiperazin-1-yl)-9-chloro-10-(2,4-difluorophenyl)-3-(3-(4-methylpiperazin-1-yl)propyl)-2,3-dihydro-5H-[1,4]oxazino[2,3,4-ij]quinazolin-5-one], with 97.4%; and `C=CC(=O)N1C[C@H](C)N(c2nc(=O)n3c4c(c(-c5c(O)cccc5F)c(Cl)cc24)OC[C@H]3Cn2cccn2)C[C@H]1C` (atropisomer, axis not shown) [Example 245, (3R,10R)-3-((1H-pyrazol-1-yl)methyl)-7-((2S,5R)-4-acryloyl-2,5-dimethylpiperazin-1-yl)-9-chloro-10-(2-fluoro-6-hydroxyphenyl)-2H-[1,4]oxazino[2,3,4-ij]quinazolin-5(3H)-one], with 0%.

On to `C=CC(=O)N1C[C@H](C)N(c2nc(=O)n3c4c(c(-c5ccc(F)cc5F)c(Cl)cc24)OC[C@H]3CN2CCOCC2)C[C@H]1C` [Example 204, (3R)-7-((2S,5R)-4-acryloyl-2,5-dimethylpiperazin-1-yl)-9-chloro-10-(2,4-difluorophenyl)-3-(morpholinomethyl)-2H-[1,4]oxazino[2,3,4-ij]quinazolin-5(3H)-one], for which, where the note is “1 h”, the “% CAF @ 10 μM,1 h” value stood at 82%. Take `C=CC(=O)N1C[C@H](C)N(c2nc(=O)n3c4c(c(-c5ccc(F)cc5F)c(Cl)cc24)O[C@@H](CCCN2C4CCC2COC4)C3)C[C@H]1C` [Example 262, (2S)-2-(3-(3-oxa-8-azabicyclo[3.2.1]octan-8-yl)propyl)-7-((2S,5R)-4-acryloyl-2,5-dimethylpiperazin-1-yl)-9-chloro-10-(2,4-difluorophenyl)-2,3-dihydro-5H-[1,4]oxazino[2,3,4-ij]quinazolin-5-one]: the “% CAF @ 10 μM,1 h” value (1 h) worked out at 31.6%. With `C=CC(=O)N1CCN(c2nc(=O)n3c4c(c(-c5c(O)cccc5F)c(Cl)cc24)OC[C@@H]3CO)CC1` [Example 21, (3S)-7-(4-acryloylpiperazin-1-yl)-9-chloro-10-(2-fluoro-6-hydroxyphenyl)-3-(hydroxymethyl)-2H-[1,4]oxazino[2,3,4-ij]quinazolin-5(3H)-one], the “% CAF (60 min)” value under setting [1] was found to be 72.8%.

Regarding `C=CC(=O)N1C[C@H](C)N(c2nc(=O)n3c4c(c(-c5c(C)ccc6[nH]ncc56)c(Cl)cc24)OC[C@H]3Cn2cccn2)C[C@H]1C` (atropisomer, axis not shown) [Example 319, (3R,10S)-3-((1H-pyrazol-1-yl)methyl)-7-((2S,5R)-4-acryloyl-2,5-dimethylpiperazin-1-yl)-9-chloro-10-(5-methyl-1H-indazol-4-yl)-2,3-dihydro-5H-[1,4]oxazino[2,3,4-ij]quinazolin-5-one], the “% CAF @ 10 μM,1 h” value (1 h) came out at 0%. Still for that read-out and setting: under `C=CC(=O)N1C[C@H](C)N(c2nc(=O)n3c4c(c(-c5ccc(F)cc5F)c(Cl)cc24)OC[C@H]3CC2CCN(CC(F)F)CC2)C[C@H]1C` [Example 328, (3R)-7-((2S,5R)-4-acryloyl-2,5-dimethylpiperazin-1-yl)-9-chloro-3-((1-(2,2-difluoroethyl)piperidin-4-yl)methyl)-10-(2,4-difluorophenyl)-2H-[1,4]oxazino[2,3,4-ij]quinazolin-5(3H)-one] stands 87%. Regarding `C=CC(=O)N1C[C@H](C)N(c2nc(=O)n3c4c(c(-c5c(O)cccc5F)c(Cl)cc24)OC[C@@H]3CCCN2CCOCC2)C[C@H]1C` (atropisomer, axis not shown) [Example 265, (3S,10S)-7-((2S,5R)-4-acryloyl-2,5-dimethylpiperazin-1-yl)-9-chloro-10-(2-fluoro-6-hydroxyphenyl)-3-(3-morpholinopropyl)-2,3-dihydro-5H-[1,4]oxazino[2,3,4-ij]quinazolin-5-one], where the note is “1 h”, the “% CAF @ 10 μM,1 h” value turned out to be 97.5%.

`C=CC(=O)N1C[C@H](C)N(c2nc(=O)n3c4c(c(-c5ccc(F)cc5F)c(Cl)cc24)OC[C@H]3CCCN2CCN(C)C(=O)C2)C[C@H]1C` [Example 283, (3R)-7-((2S,5R)-4-acryloyl-2,5-dimethylpiperazin-1-yl)-9-chloro-10-(2,4-difluorophenyl)-3-(3-(4-methyl-3-oxopiperazin-1-yl)propyl)-2,3-dihydro-5H-[1,4]oxazino[2,3,4-ij]quinazolin-5-one]: where the note is “1 h”, the “% CAF @ 10 μM,1 h” value was 92.4%. With `C=CC(=O)N1CCN(c2nc(=O)n3c4c(c(-c5ccc(F)cc5F)c(Cl)cc24)SCC3)[C@H](CC#N)C1` [Example 117, 2-((2R)-4-acryloyl-1-(9-chloro-10-(2,4-difluorophenyl)-5-oxo-2,3-dihydro-5H-[1,4]thiazino[2,3,4-ij]quinazolin-7-yl)piperazin-2-yl)acetonitrile], the “% CAF @ 10 uM, 1 h” value (Table 5, 10 uM, 1 h) came out at 75.6%. As to `C=CC(=O)N1CCN(c2nc(=O)n3c4c(c(-c5c(O)cccc5F)c(Cl)cc24)OC[C@H]3CN2CCC(F)(F)C2)[C@@H](C)C1` (atropisomer, axis not shown) [Example 230, (3R,10S)-7-((S)-4-acryloyl-2-methylpiperazin-1-yl)-9-chloro-3-((3,3-difluoropyrrolidin-1-yl)methyl)-10-(2-fluoro-6-hydroxyphenyl)-2,3-dihydro-5H-[1,4]oxazino[2,3,4-ij]quinazolin-5-one], under “1 h”, the “% CAF @ 10 μM,1 h” value was 75.9%. `C=CC(=O)N1C[C@H](C)N(c2nc(=O)n3c4c(c(-c5c(O)cccc5F)c(Cl)cc24)OC[C@H]3CO)C[C@H]1C` [Example 30]: under setting [1], the “% CAF (60 min)” value came to 68.1%. `C=CC(=O)N1CCN(c2cc(=O)n3c4c(c(-c5c(C)ccc6[nH]ncc56)ccc24)CCC3)CC1` [Example 46, 1-(4-acryloylpiperazin-1-yl)-8-(5-methyl-1H-indazol-4-yl)-6,7-dihydropyrido[3,2,1-ij]quinolin-3(5H)-one] had a CAF (Table 3, Pyridone Core-Morpholine Unsubstituted, after 60 minutes at 10 micromolar) of 12. For the compound `C=CC(=O)N1C[C@H](C)N(c2nc(=O)n3c4c(c(-c5ccc(F)cc5F)c(Cl)cc24)OC[C@@H]3Cn2cccn2)C[C@H]1C` [Example 236, (3S)-3-((1H-pyrazol-1-yl)methyl)-7-((2S,5R)-4-acryloyl-2,5-dimethylpiperazin-1-yl)-9-chloro-10-(2,4-difluorophenyl)-2H-[1,4]oxazino[2,3,4-ij]quinazolin-5(3H)-one], the “% CAF @ 10 μM,1 h” value (1 h) is recorded as 60.9%. The same measure, in the same setting: under `C=CC(=O)N1C[C@H](C)N(c2nc(=O)n3c4c(c(-c5cccc6ccccc56)c(Cl)cc24)OC[C@H]3CCCN2C[C@@H]3C[C@H]2CO3)C[C@H]1C` (atropisomer, axis not shown) [Example 322, (3R,10S)-3-(3-((1S,4S)-2-oxa-5-azabicyclo[2.2.1]heptan-5-yl)propyl)-7-((2S,5R)-4-acryloyl-2,5-dimethylpiperazin-1-yl)-9-chloro-10-(naphthalen-1-yl)-2,3-dihydro-5H-[1,4]oxazino[2,3,4-ij]quinazolin-5-one] stands 78.5%. On to `C=CC(=O)N1CCN(c2nc(=O)n3c4c(c(N(C)c5ccccc5C)c(Cl)cc24)OCC3)CC1` [Example 6], for which the “% CAF (60 min)” value under setting [2] came to 17.6%. `C=CC(=O)N1C[C@H](C)N(c2nc(=O)n3c4c(c(-c5cccc6ccccc56)c(Cl)cc24)OC[C@H]3Cn2cccn2)C[C@H]1C` (atropisomer, axis not shown) [Example 306, (3R,10R)-3-((1H-pyrazol-1-yl)methyl)-7-((2S,5R)-4-acryloyl-2,5-dimethylpiperazin-1-yl)-9-chloro-10-(naphthalen-1-yl)-2,3-dihydro-5H-[1,4]oxazino[2,3,4-ij]quinazolin-5-one]: the “% CAF @ 10 μM,1 h” value (1 h) is 73.5%. Consider `C=CC(=O)N1C[C@H](C)N(c2nc(=O)n3c4c(c(-c5c(O)cccc5F)c(Cl)cc24)OC[C@H]3CN2CCN(C)CC2)C[C@H]1C` (atropisomer, axis not shown) [Example 301, (3R,10S)-7-((2S,5R)-4-acryloyl-2,5-dimethylpiperazin-1-yl)-9-chloro-10-(2-fluoro-6-hydroxyphenyl)-3-((4-methylpiperazin-1-yl)methyl)-2,3-dihydro-5H-[1,4]oxazino[2,3,4-ij]quinazolin-5-one], for which, under “1 h”, the “% CAF @ 10 μM,1 h” value is reported as 52.1%. On to `C=CC(=O)N1C[C@H](C)N(c2nc(=O)n3c4c(c(-c5ccc(F)c(Cl)c5)ccc24)OCC3)C[C@H]1C` [Example 12, 7-((2S,5R)-4-acryloyl-2,5-dimethylpiperazin-1-yl)-10-(3-chloro-4-fluorophenyl)-2H-[1,4]oxazino[2,3,4-ij]quinazolin-5(3H)-one], for which the “% CAF (60 min)” value under setting [2] is 0%.
